Six compounds from patent US20120214847A1, “2-[1-PHENYL-5-HYDROXY-4a-SUBSTITUTED-HEXAHYDROCYCLOPENTA[F]INDAZOL-5-YL]ETHYL PHENYL DERIVATIVES AS GLUCOCORTICOID RECEPTOR LIGANDS” (Merck Sharp & Dohme Corp., priority 2009, published 2012) can be followed below.

This assay deals with T1, human GR (Homo sapiens, UniProt P04150).
T1 construct: naturally expresses the human GR; endogenous in cells
T1 sequence (P04150 1-777): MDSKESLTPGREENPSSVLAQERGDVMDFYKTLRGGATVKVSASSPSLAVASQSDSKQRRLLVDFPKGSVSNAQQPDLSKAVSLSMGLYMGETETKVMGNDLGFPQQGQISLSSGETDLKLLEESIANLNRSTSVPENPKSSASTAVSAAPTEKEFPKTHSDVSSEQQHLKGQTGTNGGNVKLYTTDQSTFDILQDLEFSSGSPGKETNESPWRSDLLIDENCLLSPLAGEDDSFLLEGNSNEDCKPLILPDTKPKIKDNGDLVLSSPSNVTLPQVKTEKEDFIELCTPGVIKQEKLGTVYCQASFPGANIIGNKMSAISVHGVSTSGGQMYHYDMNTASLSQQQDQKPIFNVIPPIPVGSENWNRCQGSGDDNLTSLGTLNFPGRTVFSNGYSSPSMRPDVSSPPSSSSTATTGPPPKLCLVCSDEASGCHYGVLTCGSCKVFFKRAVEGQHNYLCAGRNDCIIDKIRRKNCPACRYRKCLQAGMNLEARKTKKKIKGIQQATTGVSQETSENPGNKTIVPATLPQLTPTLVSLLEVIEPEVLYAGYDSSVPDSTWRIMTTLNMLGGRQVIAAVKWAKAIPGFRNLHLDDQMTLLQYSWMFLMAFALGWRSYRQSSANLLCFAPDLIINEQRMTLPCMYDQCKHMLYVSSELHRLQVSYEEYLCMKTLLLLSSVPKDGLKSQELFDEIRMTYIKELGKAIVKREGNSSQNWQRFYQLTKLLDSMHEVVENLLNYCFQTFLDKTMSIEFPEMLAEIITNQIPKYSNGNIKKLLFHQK
Put plainly: Trans-activation modulation of glucocorticoid receptor (GRAMMER), MMTV-LUC reporter in A549 cells. The class given is cell-based. The following applies: for EC50: IP = inflection point, read-out: Transactivation A549 Cells Grammer IP; for Emax: A549, A549 cells, read-out: Transactivation A549 Cells Grammer Emax (%).

The mark [1] stands for this setting: Emax relative to the activity obtained with 300 nM dexamethasone.

Structures are written as SMILES.

Turning to `CC[C@]12Cc3cnn(-c4ccc(F)cc4)c3C=C1CC[C@@]2(O)CC(O)c1ncccc1F` (stereo partly drawn) [Example 77, (4aS,5R)-4a-Ethyl-1-(4-fluorophenyl)-5-[2-(3-fluoropyridin-2-yl)-2-hydroxyethyl]-1,4,4a,5,6,7-hexahydrocyclopenta[f]indazol-5-ol], the “Transactivation A549 Cells Grammer Emax (%)” value (A549 cells, Emax relative to the activity obtained with 300 nM dexamethasone) is 23%. Moreover, where the note is “A549 cells”, the EC50 amounted to 115 nM.
With `CC[C@]12Cc3cnn(-c4ccc(F)cc4)c3C=C1CC[C@@]2(O)CCc1ncccc1F` [Example 17, (4aS,5R)-4a-Ethyl-1-(4-fluorophenyl)-5-[2-(3-fluoropyridin-2-yl)ethyl]-1,4,4a,5,6,7-hexahydrocyclopenta[f]indazol-5-ol], the Emax under setting [1] was 44%. Besides, under “A549 cells”, the EC50 was found to be 30 nM.
`CC[C@]12Cc3cnn(-c4ccc(F)cc4)c3C=C1CC[C@@]2(O)CC(O)c1ncccc1F` (stereo partly drawn) [Example 76, (4aS,5R)-4a-Ethyl-1-(4-fluorophenyl)-5-[2-(3-fluoropyridin-2-yl)-2-hydroxyethyl]-1,4,4a,5,6,7-hexahydrocyclopenta[f]indazol-5-ol]: the Emax under setting [1] worked out at 31%. The EC50 (A549 cells) stood at 142 nM.
With `CC[C@]12Cc3cnn(-c4ccc(F)cc4)c3C=C1CC[C@@]2(O)CC(O)c1ccc(F)cn1` (single isomer, unassigned) [Example 69a], the Emax under setting [1] was determined as 33%. For the setting “A549 cells”, the EC50 was 170 nM.
The like results for `NC(=O)c1c(C2CC2)ccnc1CC[C@]1(O)CCC2=Cc3c(cnn3-c3ccc(F)cc3)C[C@@]21C1CC1` [Example 49, 4-Cyclopropyl-2-{2-[(4aR,5R)-4a-cyclopropyl-1-(4-fluorophenyl)-5-hydroxy-1,4,4a,5,6,7-hexahydrocyclopenta[f]indazol-5-yl]ethyl}pyridine-3-carboxamide] were, in that order, 30% and 9 nM.
With `NC(=O)c1cc(F)cnc1CC[C@]1(O)CCC2=Cc3c(cnn3-c3ccc(F)cc3)C[C@@]21C1CC1` [Example 4, 2-{2-[(4aR,5R)-4a-Cyclopropyl-1-(4-fluorophenyl)-5-hydroxy-1,4,4a,5,6,7-hexahydrocyclopenta[f]indazol-5-yl]ethyl}-5-fluoropyridine-3-carboxamide], under setting [1], the Emax amounted to 14%. Moreover, the EC50 (A549 cells) came out at 116 nM.

The term Emax denotes the maximal effect, on the per cent scale that the assay sets.
